Results taken from patent US20230248723A1, “PYRROLO[2,3-B]PYRAZINE COMPOUNDS AS CCCDNA INHIBITORS FOR THE TREATMENT OF HEPATITIS B VIRUS (HBV) INFECTION” (Hoffmann-La Roche Inc., priority 2017, published 2023).
Read-outs that look alike come from different tables or passages of the source.

Experiments:
[1] = test system: liver-enriched genes (liver signatures); experiment: Whole-genome transcriptome microarray on HLC treated with MB-1; format: cell-based, human
Protocol: FIG. 1: Maturation screen identified a small molecule that enhances maturation of HLC. (A) HLC maturation screening cascade. […] Lane 1-3, MB-1 (5 μM) at 7 d, 24 h, and 2 h, respectively. Lane 4-6, MB-1 (0.5 μM) at 7 d, 24 h, and 2 h, respectively. (C) BioQC liver score analysis of HLC transcriptomes (following treatment with MB-1 for 2 h, 24 h, and 7 day) were compared to those of PHH, HepaRG, and HepG2. (D) Expression of AAT-1a in HLC after 14 day of treatment with MB-1, or 1% DMSO. (E) MB-1-treated HLC support robust HBV infection: HLC (in 96-well plate) were treated with MB-1 (1 μM), or 1% DMSO, for 4 days, then infected with patient-derived HBV (MOI 10, in triplicate). Culture medium was harvested at indicated time points and analyzed for HBsAg.
To fully manifest the potential of HLC as a disease-relevant assay for HBV drug discovery, they have to meet the following criteria: hepatocyte-likeness, scalability, assay robustness, and reproducibility. It is well known that HLC still display immature phenotypes i.e. resemble more fetal than adult, hepatocytes (Baxter et al., 2015; Godoy et al., 2015; Goldring et al., 2017). […]

HBV DNA = HBV DNA in culture medium of HBV-infected PHH; format: cell-based; details: Hepatitis B virus
Description: FIG. 8: Establishment of dPCR assay for cccDNA quantification. […] A 3.2-kb, linearized plasmid HBV is used as a standard curve for relative quantification of HBV DNA by TaqMan-PCR. […] (B) Testing primer & PCR specificity and removal of excess RC-DNA. In contrast to TaqMan-PCR (relative quantification method), digital PCR (dPCR) is an absolute quantification method without the need of standard curve. […] First step—Testing primer and PCR specificity. Serum-derived HBV (contains RC-DNA, devoid of cccDNA) was used as a DNA template for dPCR using 2 sets of primers (for HBV core and cccDNA region) (Werle-Lapostolle et al., 2004). Samples were amplified by dPCR on QuantStudio 12K Flex Real-Time PCR System (AB); 4 subarrays (256 through-holes) were used for each sample. […] Second step—Removal of excess RC-DNA. PHH seeded in 96-well were infected with HBV. At day 6 pi, cell lysates were digested with Plasmid safe, ATP-dependent, DNAse (PSAD), T5 exonuclease, or, T5 exonuclease followed by EcoRI, for 1 hr at 37° C. Samples were amplified by dPCR using cccDNA primers on QuantStudio 12K Flex Real-Time PCR System (AB); 4 subarrays (256 through-holes) were used for each sample. […] Fresh medium and compound was replenished every 2 day. At day 10 pi, culture media were harvested and measured for HBV DNA, HBsAg, and HBeAg. Albumin was used as a surrogate of in vitro tox marker. Cells were lysed and treated with T5 exonuclease, cccDNA was then measured by dPCR on QuantStudio 12K Flex Real-Time PCR System (AB); 4 subarrays (256 through-holes) were used for each sample. […] Cells were treated with compounds at the indicated concentrations starting from day 3 post infection (patient-derived HBV, GT D). Fresh medium and compound was replenished every 2 day. Cells were harvested at day 10 pi; viral markers and albumin were measured from culture medium.
HBV from sera of CHB individuals were purified using OptiPrep™ (Axis-Shield, Norway) density gradient. Briefly, OptiPrep™ stock solution (60%) was diluted to 50% and 10% in PBS; equal volume of each solution was then added into SW41 tubes (BD Biosciences). Linear gradient was performed by placing the tubes on Gradient Master 108™ (Biocomp) at setting: 800, 25 rpm for 30″. Two hundred microliter (200 μl) of serum was overlaid on the top of gradient and samples were centrifuged at 100,000×g for 2 hours at 4° C. […] Fractions containing the peak of HBV DNA were pooled and used as virus inoculum for all infection experiments. All fractions were stored at −80° C. until used.
Fresh primary human hepatocytes (PXB-PHH) harvested from humanized mice (uPA/SCID mice)—herein called PHH—were obtained from PhoenixBio Co., Ltd (Japan).

Q: Which results are given for `O=C(NCc1cccc(F)c1)c1cccc2[nH]c(-c3c(NC[C@@H](O)c4ccccc4)cc[nH]c3=O)nc12` [MB-1]?
A: number of liver-enriched genes (liver tissue signature) with up-regulated mRNA expression ([1]; Gini index >0.7): ~237; number of up-regulated genes that are highly expressed in the liver ([1]; Gini index >0.8): 137

Q: With `O=C(NC(CO)CO)c1c[nH]c2ncc(C3CC3)nc12` [compound 7] as the compound, how does the IC50 (HBV DNA; 240 h, read-out: HBV DNA IC50 (μM) Median, PHH, patient-derived HBV GT A, MOI 40, day 10 pi) read?
A: 0.025 µM

Q: And the IC50 (HBV DNA; 240 h, read-out: HBV DNA IC50 (μM) Median, PHH, patient-derived HBV GT B, MOI 40, day 10 pi)?
A: 0.023 µM

Q: What about the IC50 (HBV DNA; 240 h, read-out: HBV DNA IC50 (μM) Median, PHH, patient-derived HBV GT C, MOI 40, day 10 pi) of the same compound?
A: 0.02 µM

Q: And the IC50 (HBV DNA; 240 h, read-out: HBV DNA IC50 (μM) Median, PHH, patient-derived HBV GT D, MOI 40, day 10 pi (Table 5))?
A: 0.023 µM

Q: What about the IC50 (HBV DNA; read-out: HBV DNA IC50s, PHH, patient-derived HBV GT A-D) of the same compound?
A: 0.02 to 0.025 µM
